Data set [1] concerns the target T1, α5GABAA receptors (Homo sapiens, UniProt P18507+P31644).
T1 sequence (P31644 32-462): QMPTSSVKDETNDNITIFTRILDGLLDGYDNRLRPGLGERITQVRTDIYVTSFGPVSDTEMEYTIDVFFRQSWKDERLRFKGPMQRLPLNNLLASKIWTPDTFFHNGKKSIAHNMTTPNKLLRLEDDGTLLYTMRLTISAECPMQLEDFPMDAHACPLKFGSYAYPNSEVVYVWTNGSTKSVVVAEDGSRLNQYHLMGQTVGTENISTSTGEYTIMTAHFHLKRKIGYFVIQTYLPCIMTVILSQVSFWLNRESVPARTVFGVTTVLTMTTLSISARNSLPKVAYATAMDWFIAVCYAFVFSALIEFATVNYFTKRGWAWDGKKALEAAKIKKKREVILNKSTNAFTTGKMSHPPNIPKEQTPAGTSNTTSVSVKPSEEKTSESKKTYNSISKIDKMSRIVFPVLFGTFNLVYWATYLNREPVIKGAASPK
T1 sequence (P28472 26-473 partner): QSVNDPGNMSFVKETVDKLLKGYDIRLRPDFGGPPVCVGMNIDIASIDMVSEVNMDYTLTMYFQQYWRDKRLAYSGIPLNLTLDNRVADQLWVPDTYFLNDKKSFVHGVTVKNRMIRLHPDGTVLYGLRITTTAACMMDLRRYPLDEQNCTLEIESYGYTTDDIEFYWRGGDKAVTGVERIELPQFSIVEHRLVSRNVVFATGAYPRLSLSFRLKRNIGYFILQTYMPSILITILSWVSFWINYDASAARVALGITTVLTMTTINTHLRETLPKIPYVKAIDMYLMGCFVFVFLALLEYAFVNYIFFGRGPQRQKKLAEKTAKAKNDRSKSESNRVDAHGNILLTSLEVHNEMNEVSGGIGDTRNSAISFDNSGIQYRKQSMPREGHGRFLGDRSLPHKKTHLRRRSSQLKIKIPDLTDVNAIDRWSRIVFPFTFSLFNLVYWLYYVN
T1 sequence (P18507 40-467 limits assumed): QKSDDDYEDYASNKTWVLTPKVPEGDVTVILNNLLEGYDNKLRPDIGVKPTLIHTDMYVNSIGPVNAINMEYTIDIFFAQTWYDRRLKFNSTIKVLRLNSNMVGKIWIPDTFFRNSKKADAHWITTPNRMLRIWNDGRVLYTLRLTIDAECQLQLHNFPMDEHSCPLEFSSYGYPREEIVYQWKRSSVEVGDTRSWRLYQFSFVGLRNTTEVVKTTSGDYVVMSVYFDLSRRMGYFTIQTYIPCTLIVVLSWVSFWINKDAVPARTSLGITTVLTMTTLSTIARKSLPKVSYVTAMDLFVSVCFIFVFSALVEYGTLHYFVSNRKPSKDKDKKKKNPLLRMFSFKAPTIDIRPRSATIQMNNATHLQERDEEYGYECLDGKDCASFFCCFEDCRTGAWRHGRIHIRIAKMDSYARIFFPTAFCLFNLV
To be noted: cited from earlier work.

The conditions of data set [2]: cited from earlier work.
The subject of data set [3] is α5GABAA receptors. The data set is described as follows: In vivo receptor occupancy of L-655,708 (literature). The conditions noted are these: 0.7 mg/kg intraperitoneal, 30 min after injection.
Another data set deals with α5GABAARs (Mus musculus, UniProt P22723+Q8BHJ7). The data set is described as follows: Fear conditioning after IL-1β or LPS injection. Format: in vivo, mice. How it is done:
Pavlovian fear-conditioning tasks were used for behavioral analysis^29. LPS (125 μg kg^−1, i.p., with physiological saline as the vehicle control) or IL-1β (1 μg kg^−1, i.p., with 0.1% bovine serum albumin as the vehicle control) was injected into male 3- to 4-month-old WT and Gabra5−/− mice 3 h before conditioning. The intensity of the electric footshock was 0.5 mA. For some mice, the inverse agonist L-655,708 (0.35 or 0.5 mg kg^−1, i.p.) or vehicle control (10% DMSO, i.p.) was injected 30 min before training. The movement of the mouse was monitored. The percentage of time that each mouse spent in a freezing position was determined using FreezeView software (Version 2.26, Actimetrics Inc, Wilmette, Ill., USA).
We have determined that IL-1β-induced impairment of contextual fear memory can be reversed by pharmacological inhibition of α5GABAA receptors by the inverse agonist MRK-016. Fear conditioning was performed 3 h after injection of IL-1β (1 μg kg^−1, i.p.) in both wild-type (WT) and α5GABAA receptor knock out (Gabra5−/−) mice. Mice were trained to associate a context (contextual fear) and a tone (cued fear) with an aversive electric footshock. 24 h after conditioning each mouse was placed in the training context, and contextual fear memory was measured as the percentage of time spent freezing. Cued fear memory was measured 48 h after training as the percentage of time spent freezing to the conditioned auditory tone in a novel context.

For data set [4] the following is noted: cited from earlier work. This is another data set of the same source.
The nature of data set [5]: Isoflurane concentration in brain tissue (gas chromatography) and in expired gas. The conditions noted are these: after removal from the chamber. The source says:
Following a designated recovery time, mice were sacrificed by cervical dislocation. The brains were rapidly removed at room temperature and placed in a gas-tight syringe containing polytetrafluoroethylene beads. The whole brain was immediately crushed with two strokes of the plunger and the syringe was then sealed. […] The methods are similar to that described for measurement of inhaled anesthetics in blood.^26

The nature of data set [6]: Analysis of blood gases during isoflurane anesthesia. The data set is classed as in vivo, mice. The conditions noted are these: for pH: n = 6. The source says: A needle was carefully inserted into the heart and blood was extracted into a heparinized syringe. The collected blood was immediately placed on ice and transported to a blood gas analyzer (ABL 700 series, Radiometer, Copenhagen, Denmark).

The nature of data set [7]: Core (rectal) temperature during anesthesia. The data set is classed as in vivo, mice. On the procedure: Mice were placed in the air-tight acrylic glass chamber for administration of the anesthetic; a rectal probe was inserted after the mice lost their righting reflex and rectal temperature was […] to measure temperature between 5 min and 1 h. The rectal probe was not inserted prior to the 5 min mark to ensure the mice were adequately anesthetized and not discomforted.

Broadly, the half-life is the time in which the quantity being followed falls by half.

“Also recorded” adds a separate entry of the source. Some results are limits rather than exact numbers.

α5GABAARs, sequence (Q8BHJ7 32-463 limits assumed): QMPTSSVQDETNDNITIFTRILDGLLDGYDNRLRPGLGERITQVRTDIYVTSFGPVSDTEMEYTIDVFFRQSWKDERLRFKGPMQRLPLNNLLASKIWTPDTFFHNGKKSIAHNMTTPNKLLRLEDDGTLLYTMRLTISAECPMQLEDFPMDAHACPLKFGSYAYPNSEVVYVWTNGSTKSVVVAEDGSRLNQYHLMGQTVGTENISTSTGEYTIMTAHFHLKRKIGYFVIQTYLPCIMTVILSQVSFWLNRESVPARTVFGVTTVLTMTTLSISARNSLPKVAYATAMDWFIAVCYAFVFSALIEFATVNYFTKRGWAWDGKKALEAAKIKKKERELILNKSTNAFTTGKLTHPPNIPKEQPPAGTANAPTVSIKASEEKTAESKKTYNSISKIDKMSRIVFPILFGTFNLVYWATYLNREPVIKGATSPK
α5GABAARs, sequence (P63080 26-473 partner): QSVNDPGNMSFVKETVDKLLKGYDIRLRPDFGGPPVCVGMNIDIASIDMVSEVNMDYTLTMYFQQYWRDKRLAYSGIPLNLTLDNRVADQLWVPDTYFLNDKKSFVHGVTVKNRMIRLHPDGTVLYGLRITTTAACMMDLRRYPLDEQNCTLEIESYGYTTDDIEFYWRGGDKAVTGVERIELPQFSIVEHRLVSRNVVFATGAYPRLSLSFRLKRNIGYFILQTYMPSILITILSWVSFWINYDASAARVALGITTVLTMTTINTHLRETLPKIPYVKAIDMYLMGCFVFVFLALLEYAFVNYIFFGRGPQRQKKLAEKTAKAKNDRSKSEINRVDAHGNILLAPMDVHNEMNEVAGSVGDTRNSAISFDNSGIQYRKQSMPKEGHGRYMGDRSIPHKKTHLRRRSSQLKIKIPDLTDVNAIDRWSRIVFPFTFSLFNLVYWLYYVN
α5GABAARs, sequence (P22723 39-474): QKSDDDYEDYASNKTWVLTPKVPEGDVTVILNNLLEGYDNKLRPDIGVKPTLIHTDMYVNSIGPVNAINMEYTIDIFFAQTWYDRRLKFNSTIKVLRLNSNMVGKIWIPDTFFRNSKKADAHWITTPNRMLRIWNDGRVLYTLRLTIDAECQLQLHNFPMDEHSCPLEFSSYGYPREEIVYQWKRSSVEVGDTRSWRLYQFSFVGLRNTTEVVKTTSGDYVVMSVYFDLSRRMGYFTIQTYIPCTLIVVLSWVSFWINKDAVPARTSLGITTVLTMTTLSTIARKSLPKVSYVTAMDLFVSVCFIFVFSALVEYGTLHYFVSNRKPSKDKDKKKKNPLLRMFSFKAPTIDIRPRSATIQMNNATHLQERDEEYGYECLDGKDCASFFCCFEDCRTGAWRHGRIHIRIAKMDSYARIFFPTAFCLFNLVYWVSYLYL

Regarding `CCOC(=O)c1ncn2c1[C@@H]1CCCN1C(=O)c1cc(OC)ccc1-2` [L-655,708], on α5GABAA receptors [1], the “affinity for α5GABAA receptors relative to other receptor subtypes” value is 50 fold, the “preference for α5GABAA receptors over α2 subunit-containing GABAA receptors” value is reported as 61 fold and the “preference for α5GABAA receptors over α3 subunit-containing GABAA receptors” value was 54 fold. Besides, the “preference for α5GABAA receptors over α1 subunit-containing GABAA receptors” value at α5GABAA receptors [1] (in vitro electrophysiological and biochemical studies) is 107 fold. Also, in data set [2] (rat, in vivo), the half-life is 30 min and the time of peak is 0.25 h. Also, in data set [2] (subcutaneous injection), the “brain versus plasma concentrations (in words)” value is on record as “concentrations in the brain mimic those in the plasma”. Besides, the “estimated occupancy of α5GABAA receptors in vivo” value in the data set with α5GABAA receptors [3] is 60-70%. On α5GABAARs (IL-1β 1 μg kg^−1 i.p. or LPS 125 μg kg^−1 i.p. 3 h before conditioning, inverse agonist co-administered), the “contextual fear memory, WT mice (in words)” value is listed as “attenuated the IL-1β-induced contextual fear memory deficits in WT mice; also recorded: restored freezing scores for contextual fear memory to control values”. The “cued fear memory to a conditioned tone stimulus (in words)” value at α5GABAARs (mouse, in vivo) is reported as “did not affect freezing to a conditioned tone stimulus”.
As for `FC(F)OC(Cl)C(F)(F)F` (centres unmarked) [isoflurane], in data set [4] (after 270 min of elimination following isoflurane 1.3% for 90 min), the “fraction that had left the brain” value is given as 96%. Besides, in data set [4] (humans), the “elimination, initial fast component” value is recorded as 5 min and the “elimination, slower component” value is listed as 15 min. Besides, in data set [4] (in vivo), the fraction metabolized entry is listed as “less than 0.2%” and the “fraction recovered in expired gas” value is approximately 100%. In data set [4] (within 270 min, laboratory animals), the “fraction eliminated from the brain” value is listed as 97%. In addition, in data set [5], the “time until isoflurane in expired gas is undetectable” value is on record as not above 7 min. In addition, the “hypoxia (in words)” value in data set [6] (isoflurane 1 MAC in 30% O2 for 1 h or 5 min) is given as “Hypoxia did not occur”. In data set [6] (isoflurane 5 min), this compound yielded a pCO2 of 48.6 ± 2.02 mmHg, a pO2 of 142 ± 16 mmHg and a pH of 7.28 ± 0.02. In data set [6] (isoflurane 60 min), this compound registered a pCO2 of 54.2 ± 12.3 mmHg, a pO2 of 193 ± 31 mmHg and a pH of 7.23 ± 0.08. In data set [7] (5 min after introduction into the anesthetic chamber), this compound came in with a rectal temperature of 37.8±0.4 °C. Besides, the rectal temperature in data set [7] (1 h after induction) amounted to 37.8±0.4 °C.

The values are drawn from US9517265B2, “Methods for the prevention and/or treatment of memory impairment” (The Governing Council of the University of Toronto, priority 2010, dated 2016).
